Experimental findings from ChEMBL document CHEMBL1156250, “Novel three-component domino reactions of ketones, isatin and amino acids: synthesis and discovery of antimycobacterial activity of highly functionalised novel dispiropyrrolidines” (2010) are described below.

Values after ≈ are worked out from the molar mass of the structure shown.

What all share (assay type): functional
In assay [1] the test system is Mycobacterium tuberculosis. Briefly: Antimycobacterial activity against Mycobacterium tuberculosis H37Rv by agar dilution method.
Assay [2] deals with Mycobacterium tuberculosis. Briefly: Ratio of compound MIC over ethambutol MIC for Mycobacterium tuberculosis H37Rv.
The test system of assay [3] is Mycobacterium tuberculosis. Kind of assay: Ratio of compound MIC over pyrazinamide MIC for Mycobacterium tuberculosis H37Rv.

`O=C1Nc2ccc(Br)cc2C12NC(c1ccccc1)C(c1ccccc1)C21CN(c2ccccc2)CCC1=O` (stereo not drawn) gave an MIC in assay [1] of 10.6 µM (≈ 6.1 µg/mL).

Turning to `Cc1ccc2c(c1)C1(C(=O)N2)N(C)CCC12CCCCC2=O` (stereo not drawn), 41.9 µM (≈ 12.5 µg/mL) was the least that counted as inhibitory in assay [1] (MIC).

As to `CN1CCC(=O)C2(C1)C(c1ccccc1)C(c1ccccc1)NC21C(=O)Nc2ccc(Cl)cc21` (stereo not drawn), 26.5 µM (≈ 12.5 µg/mL) was the least that counted as inhibitory in assay [1] (MIC).

As for `CC(C)c1cccc2c1NC(=O)C21N(C)CCC12CN(N=O)CCC2=O` (stereo not drawn), in assay [1], the MIC was 8.78 µM (≈ 3.13 µg/mL).

For the compound `CC(C)c1cccc2c1NC(=O)C21NC(c2ccccc2)C(c2ccccc2)C12CN(C)CCC2=O` (stereo not drawn), the MIC in assay [1] turned out to be 26.1 µM (≈ 12.5 µg/mL).

Compound `Cc1ccc2c(c1)C1(C(=O)N2)C2CCCN2C2(C(=O)Nc3ccc(C)cc32)C2CCCN21` (stereo not drawn) returned an MIC in assay [1] of 29.2 µM (≈ 12.5 µg/mL). The MIC values of the last two compounds are within 1.5-fold of each other.

Regarding `CC(C)c1cccc2c1NC(=O)C21N(C)CCC12CCCCCC2=O` (stereo not drawn), in assay [1], the minimum inhibitory concentration (MIC) was determined as 73.4 µM (≈ 25 µg/mL).

The compound `CN1CCC(=O)C2(CCN(C)C23C(=O)Nc2ccc(Br)cc23)C1` (stereo not drawn) showed an MIC in assay [1] of 33 µM (≈ 12.5 µg/mL). Against the preceding compound, the MIC is about 2.2-fold lower.

For the compound `CC(C)c1cccc2c1NC(=O)C21NC(c2ccccc2)C(c2ccccc2)C12CN(c1ccccc1)CCC2=O` (stereo not drawn), in assay [1], the lowest concentration to inhibit growth (MIC) was 22.5 µM (≈ 12.2 µg/mL).

Consider `CN1CCC2(CCCCC2=O)C12C(=O)Nc1ccc(Cl)cc12` (stereo not drawn), for which the MIC in assay [1] came to 39.2 µM (≈ 12.5 µg/mL).

Regarding `CC(C)c1cccc2c1NC(=O)C21N(C)CCC12CN(C)CCC2=O` (stereo not drawn), it took 36.6 µM (≈ 12.5 µg/mL) to inhibit growth in assay [1] (MIC).

On to `CN1CCC2(CCCCCC2=O)C12C(=O)Nc1ccc(Cl)cc12` (stereo not drawn), for which the MIC in assay [1] turned out to be 18.8 µM (≈ 6.25 µg/mL). This MIC lies about 1.9-fold lower than the previous one.

Consider `CC(C)c1cccc2c1NC(=O)C21N(C)CCC12CCCCC2=O` (stereo not drawn), for which the minimal inhibitory concentration (MIC) in assay [1] came to 38.3 µM (≈ 12.5 µg/mL).

Consider `Cc1ccc2c(c1)C1(NC(c3ccccc3)C(c3ccccc3)C13CN(c1ccccc1)CCC3=O)C(=O)N2` (stereo not drawn), for which the MIC in assay [1] is 23.7 µM (≈ 12.2 µg/mL).

For `O=C1Nc2ccc(Cl)cc2C12NC(c1ccccc1)C(c1ccccc1)C21CCCCC1=O` (stereo not drawn), in assay [1], the MIC was 13.7 µM (≈ 6.25 µg/mL).

In assay [1], `O=C1Nc2ccccc2C12NC(c1ccccc1)C(c1ccccc1)C21CCCC1=O` (stereo not drawn) gave an MIC of 61.2 µM (≈ 25 µg/mL). Against the preceding compound, the MIC is about 4.5-fold higher.

For the compound `NNC(=O)c1ccncc1` [ISONIAZID], the MIC in assay [1] is 0.36 µM (≈ 0.0494 µg/mL).

Compound `CN1CCC2(CN(N=O)CCC2=O)C12C(=O)Nc1ccc(Cl)cc12` (stereo not drawn) displayed an MIC in assay [1] of 4.47 µM (≈ 1.56 µg/mL).

In assay [1], `O=C1Nc2ccc(Cl)cc2C12NC(c1ccccc1)C(c1ccccc1)C21CN(c2ccccc2)CCC1=O` (stereo not drawn) had an MIC of 22.8 µM (≈ 12.2 µg/mL). Against the preceding compound, the MIC is about 5.1-fold higher.

Take `CN1CCC2(CCCC2=O)C12C(=O)Nc1ccc(Cl)cc12` (stereo not drawn): inhibition of growth in assay [1] (MIC) required 41 µM (≈ 12.5 µg/mL).

`CC(C)c1cccc2c1NC(=O)C21N(C)CCC12CCCC2=O` (stereo not drawn) returned an MIC in assay [1] of 160 µM (≈ 50 µg/mL).

Regarding `Cc1ccc2c(c1)C1(C(=O)N2)N(C)CCC12CN(N=O)CCC2=O` (stereo not drawn), in assay [1], the MIC was 4.75 µM (≈ 1.56 µg/mL).

The compound `Cc1ccc2c(c1)C1(NC(c3ccccc3)C(c3ccccc3)C13CN(C)CCC3=O)C(=O)N2` (stereo not drawn) showed an MIC in assay [1] of 55.4 µM (≈ 25 µg/mL).

With `O=C1Nc2ccccc2C12C1CCCN1C1(C(=O)Nc3ccccc31)C1CCCN12` (stereo not drawn), 125 µM (≈ 50 µg/mL) was the least that counted as inhibitory in assay [1] (MIC).

As for `CN1CCC(=O)C2(CCN(C)C23C(=O)Nc2ccc(Cl)cc23)C1` (stereo not drawn), the MIC in assay [1] came to 37.5 µM (≈ 12.5 µg/mL).

As to `O=C1Nc2ccc(Br)cc2C12C1CCCN1C1(C(=O)Nc3ccc(Br)cc31)C1CCCN12` (stereo not drawn), in assay [1], the MIC came to 5.61 µM (≈ 3.13 µg/mL).

Turning to `CN1CCC2(CN(N=O)CCC2=O)C12C(=O)Nc1ccc(Br)cc12` (stereo not drawn), the results for the Ratio in assay [2] and in assay [3] were 3.86 and 25.64, respectively. In addition, the lowest concentration to inhibit growth in assay [1] (MIC) was 1.98 µM (≈ 0.779 µg/mL).

In the case of `CC[C@@H](CO)NCCN[C@@H](CC)CO` [ETHAMBUTOL], the lowest concentration to inhibit growth in assay [1] (MIC) was 7.64 µM (≈ 1.56 µg/mL).

In assay [1], `CC(C)c1cccc2c1NC(=O)C21NC(c2ccccc2)C(c2ccccc2)C12CCCC2=O` (stereo not drawn) registered an MIC of 27.7 µM (≈ 12.5 µg/mL).

Regarding `CN1CCC(=O)C2(C1)C(c1ccccc1)C(c1ccccc1)NC21C(=O)Nc2ccc(Br)cc21` (stereo not drawn), inhibition of growth in assay [1] (MIC) required 6.06 µM (≈ 3.13 µg/mL).

Turning to `CC(C)c1cccc2c1NC(=O)C21NC(c2ccccc2)C(c2ccccc2)C12CCCCC2=O` (stereo not drawn), inhibition of growth in assay [1] (MIC) required 13.4 µM (≈ 6.25 µg/mL).

`O=C1Nc2ccc(Br)cc2C12NC(c1ccccc1)C(c1ccccc1)C21CCCCC1=O` (stereo not drawn) came in with a minimum inhibitory concentration (MIC) in assay [1] of 6.24 µM (≈ 3.13 µg/mL).

`Cc1ccc2c(c1)C1(NC(c3ccccc3)C(c3ccccc3)C13CCCCC3=O)C(=O)N2` (stereo not drawn) came in with an MIC in assay [1] of 115 µM (≈ 50 µg/mL).

In turn, `CN1CCC2(CCCC2=O)C12C(=O)Nc1ccc(Br)cc12` (stereo not drawn) gave an MIC in assay [1] of 8.96 µM (≈ 3.13 µg/mL).

Compound `NC(=O)c1cnccn1` [PYRAZINAMIDE] gave an MIC in assay [1] of 50.8 µM (≈ 6.25 µg/mL).

Take `O=C1Nc2ccccc2C12NC(c1ccccc1)C(c1ccccc1)C21CCCCC1=O` (stereo not drawn): in assay [1], it took 118 µM (≈ 50 µg/mL) to inhibit growth (MIC).

For `Cc1ccc2c(c1)C1(C(=O)N2)N(C)CCC12CN(C)CCC2=O` (stereo not drawn), the lowest concentration to inhibit growth in assay [1] (MIC) was 19.9 µM (≈ 6.25 µg/mL). This MIC is about 5.9-fold lower than that of the compound before.

For the compound `Cc1ccc2c(c1)C1(C(=O)N2)N(C)CCC12CCCCCC2=O` (stereo not drawn), 40 µM (≈ 12.5 µg/mL) was the least that counted as inhibitory in assay [1] (MIC).

Compound `CN1CCC2(CCCCC2=O)C12C(=O)Nc1ccc(Br)cc12` (stereo not drawn) showed an MIC in assay [1] of 4.29 µM (≈ 1.56 µg/mL). This MIC lies about 9.3-fold lower than the previous one.

In turn, `CN1CCC2(CCCCCC2=O)C12C(=O)Nc1ccc(Br)cc12` (stereo not drawn) came in with an MIC in assay [1] of 4.13 µM (≈ 1.56 µg/mL).

In assay [1], `O=C1Nc2ccc(Cl)cc2C12C1CCCN1C1(C(=O)Nc3ccc(Cl)cc31)C1CCCN12` (stereo not drawn) came in with a minimum inhibitory concentration (MIC) of 26.6 µM (≈ 12.5 µg/mL).
